The test system of the test is Hepatitis C Virus RNA in cultured hepatoma (HuH-7) cells containing a subgenomic HCV Replicon. Description: Assay for inhibition of HCV RNA replication (replicon assay, in situ ribonuclease protection SPA). The test is classed as cell-based.
The mark [1] stands for this setting: Hepatitis C virus, Huh-7, read-out: Replicon Assay EC50.
[2] abbreviates: Hepatitis C virus, Huh-7, read-out: Replicon Assay EC50, first eluting diastereomer, HuH-7 subgenomic HCV replicon.
Where [3] appears, read: Hepatitis C virus, Huh-7, read-out: Replicon Assay EC50, second eluting diastereomer, HuH-7 subgenomic HCV replicon.
The mark [4] stands for this setting: mixture of diastereomers tested, HuH-7 subgenomic HCV replicon, read-out: Replicon Assay EC50.

Like-named read-outs stand apart in the source and are kept apart here.

The source of these data is patent US8071568B2, “Nucleoside aryl phosphoramidates for the treatment of RNA-dependent RNA viral infection” (Merck Sharp & Dohme Corp., priority 2007, dated 2011).

Turning to `CCCC(=O)OC[C@H](C)NP(=O)(OC[C@H]1O[C@@H](n2ccc(N)nc2=O)[C@](C)(O)[C@@H]1O)Oc1ccccc1` (mixture of isomers) [Example 2, 5′-O-[{[(±)-2-(Butyryloxy)-1-methylethyl]-amino}-(phenoxy)-phosphoryl]-2′-C-methylcytidine], the EC50 came out at 2800 nM under setting [1] and 4000 nM (read-out: Replicon Assay EC50).

Regarding `C[C@@H](COC(=O)C(C)(C)C)NP(=O)(OC[C@H]1O[C@@H](n2ccc(N)nc2=O)[C@](C)(O)[C@@H]1O)Oc1ccccc1` (single isomer, unassigned) [Example 1], the EC50 reads like this: under setting [1], 1600 nM; (read-out: Replicon Assay EC50) 900 nM.

`CC[C@H](C)[C@@H](COC(=O)C(C)(C)C)NP(=O)(OC[C@H]1O[C@@H](n2ccc(N)nc2=O)[C@](C)(O)[C@@H]1O)Oc1ccccc1` (single isomer, unassigned) [Example 6]: the concentration giving a half-maximal response (EC50) by setting is: under setting [1], 2000 nM; (read-out: Replicon Assay EC50) 1800 nM.

As to `CC(C)C(=O)OC[C@H](Cc1ccccc1)NP(=O)(OC[C@H]1O[C@@H](n2ccc(N)nc2=O)[C@](C)(O)[C@@H]1O)Oc1ccccc1` (single isomer, unassigned) [Example 11], the EC50 reads like this: under setting [1], 500 nM; (read-out: Replicon Assay EC50) 900 nM.

`CC(C)C(=O)O[C@@H](C)CNP(=O)(OC[C@H]1O[C@@H](n2ccc(N)nc2=O)[C@](C)(O)[C@@H]1O)Oc1ccccc1` (single isomer, unassigned) [Example 12]: the EC50 under setting [1] came to 2200 nM and the concentration giving a half-maximal response (EC50) (read-out: Replicon Assay EC50) is 2400 nM.

With `C[C@@]1(O)[C@H](O)[C@@H](COP(=O)(NCCOC(=O)c2ccccc2)Oc2ccccc2)O[C@H]1n1ccc(N)nc1=O` (single isomer, unassigned) [Example 16, cytidine, 5′-O-[[[2-(benzoyloxy)ethyl]amino]phenoxyphosphinyl]-2′-C-methyl-], the EC50 came out at 2200 nM under setting [2] and 5000 nM under setting [3].

`CCC(CC)C(=O)OCCNP(=O)(OC[C@H]1O[C@@H](n2ccc(N)nc2=O)[C@](C)(O)[C@@H]1O)Oc1ccccc1` (single isomer, unassigned) [Example 20, 5′-O-[({2-[(2-ethylbutanoyl)oxy]ethyl}amino)(phenoxy)phosphoryl]-2′-C-methylcytidine]: the EC50 reads like this: under setting [2], 2800 nM; under setting [3], 600 nM.

On to `C[C@@]1(O)[C@H](O)[C@@H](COP(=O)(NCCOC(=O)C2CCCCCC2)Oc2ccccc2)O[C@H]1n1ccc(N)nc1=O` (single isomer, unassigned) [Example 21, 5′-O-[({2-[(cycloheptylcarbonyl)oxy]ethyl}amino)(phenoxy)phosphoryl]-2′-C-methylcytidine], for which the EC50 stood at 700 nM under setting [2] and 1200 nM under setting [3].

As for `CC(C)C(=O)O[C@@H]1CCN(P(=O)(OC[C@H]2O[C@@H](n3ccc(N)nc3=O)[C@](C)(O)[C@@H]2O)Oc2ccccc2)C1` (single isomer, unassigned) [Example 22], the EC50 runs as follows: under setting [2], more than 5000 nM; under setting [3], more than 5000 nM.

With `CC(C)(C)C(=O)OC[C@H](Cc1ccccc1)NP(=O)(OC[C@H]1O[C@@H](n2ccc(N)nc2=O)[C@](C)(O)[C@@H]1O)Oc1ccccc1` (stereo partly drawn) [Example 8, 5′-O-[[[(1S)-2-[(2,-dimethyl-1-oxopropoxy)-1-(phenylmethyl)]-ethyl]amino]-(phenoxy)-phosphinyl]-2′-C-methylcytidine], the EC50 under setting [4] worked out at 1000 nM.

As for `CC1(C)O[C@@H]2[C@@H](COP(=O)(N[C@H](COC(=O)C(C)(C)C)Cc3ccccc3)Oc3ccccc3)O[C@@H](n3ccc(N)nc3=O)[C@]2(C)O1` (stereo partly drawn) [Example 14, cytidine, 5′-O-[[[(1S)-2-(2,2-dimethyl-1-oxopropoxy)-1-(phenylmethyl)ethyl]amino]phenoxyphosphinyl]-2′-C-methyl-2′,3′-O-(1-methylethylidene)-], the EC50 (first eluting diastereomer, HuH-7 subgenomic HCV replicon, read-out: Replicon Assay EC50) is more than 5000 nM and the EC50 (second eluting diastereomer, HuH-7 subgenomic HCV replicon, read-out: Replicon Assay EC50) is more than 5000 nM.

As to `CCCCC(COC(=O)C(C)(C)C)NP(=O)(OCC1OC(n2ccc(N)nc2=O)C2(C)OC(C)(C)OC12)Oc1ccccc1` [Example 15, cytidine, 5′-O-[[[(1S)-1-[(2,2-dimethyl-1-oxopropoxy)methyl]pentyl]amino]phenoxyphosphinyl]-2′-C-methyl-2′,3′-O-(1-methylethylidene)-], the EC50 under setting [4] is more than 10000 nM.
